Laboratory results published in ChEMBL document CHEMBL1681705, “Optimisation of ITK inhibitors through successive iterative design cycles” (Bioorg Med Chem Lett, 2011).

Legend:
[1] = biological target: T1, Tyrosine-protein kinase ITK/TSK (Homo sapiens) (UniProt Q08881); test: Inhibition of Itk at 1 uM; values are per cent of control
T1 sequence (whole entry): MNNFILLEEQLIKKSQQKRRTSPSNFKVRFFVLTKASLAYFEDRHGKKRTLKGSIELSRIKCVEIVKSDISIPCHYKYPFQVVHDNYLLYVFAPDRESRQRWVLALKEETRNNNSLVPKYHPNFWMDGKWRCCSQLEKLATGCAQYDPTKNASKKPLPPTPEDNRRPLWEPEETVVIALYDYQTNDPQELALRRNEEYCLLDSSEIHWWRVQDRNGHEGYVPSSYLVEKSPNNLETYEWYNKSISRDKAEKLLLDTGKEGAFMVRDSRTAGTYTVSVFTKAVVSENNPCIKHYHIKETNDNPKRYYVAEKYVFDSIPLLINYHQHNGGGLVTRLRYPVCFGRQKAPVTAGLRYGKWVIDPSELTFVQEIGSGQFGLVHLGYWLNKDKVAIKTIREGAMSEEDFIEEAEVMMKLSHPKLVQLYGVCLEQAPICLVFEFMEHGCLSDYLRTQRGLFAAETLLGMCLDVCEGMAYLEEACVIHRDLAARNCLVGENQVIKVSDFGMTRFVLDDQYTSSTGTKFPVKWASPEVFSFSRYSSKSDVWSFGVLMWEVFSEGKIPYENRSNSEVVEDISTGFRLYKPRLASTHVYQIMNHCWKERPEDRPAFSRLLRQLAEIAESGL

[2] = biological target: T2, Serine/threonine-protein kinase Sgk1 (Homo sapiens) (UniProt O00141); test: Inhibition of SGK at 1 uM; values are per cent of control
T2 sequence (whole entry): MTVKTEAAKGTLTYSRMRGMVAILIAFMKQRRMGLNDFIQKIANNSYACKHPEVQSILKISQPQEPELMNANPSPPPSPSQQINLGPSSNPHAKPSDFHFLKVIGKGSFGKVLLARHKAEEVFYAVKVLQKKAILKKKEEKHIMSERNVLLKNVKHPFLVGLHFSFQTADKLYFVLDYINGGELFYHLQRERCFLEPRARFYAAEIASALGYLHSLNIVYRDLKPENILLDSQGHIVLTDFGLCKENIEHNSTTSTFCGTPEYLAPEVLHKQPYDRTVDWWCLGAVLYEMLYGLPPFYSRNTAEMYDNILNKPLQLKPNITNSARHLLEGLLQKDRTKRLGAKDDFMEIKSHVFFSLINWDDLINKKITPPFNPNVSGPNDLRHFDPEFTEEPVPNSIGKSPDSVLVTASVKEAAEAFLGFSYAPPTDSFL

[3] = biological target: Macrophage colony-stimulating factor 1 receptor (Homo sapiens) (UniProt P07333); test: Inhibition of Fms at 0.1 uM; values are per cent of control
[4] = biological target: T1, Tyrosine-protein kinase ITK/TSK (Homo sapiens); test: Inhibition of Itk at 0.1 uM; values are per cent of control
[5] = biological target: T3, Serine/threonine-protein kinase Chk1 (Homo sapiens) (UniProt O14757); test: Inhibition of CHK1 at 0.1 uM; values are per cent of control
T3 sequence (whole entry): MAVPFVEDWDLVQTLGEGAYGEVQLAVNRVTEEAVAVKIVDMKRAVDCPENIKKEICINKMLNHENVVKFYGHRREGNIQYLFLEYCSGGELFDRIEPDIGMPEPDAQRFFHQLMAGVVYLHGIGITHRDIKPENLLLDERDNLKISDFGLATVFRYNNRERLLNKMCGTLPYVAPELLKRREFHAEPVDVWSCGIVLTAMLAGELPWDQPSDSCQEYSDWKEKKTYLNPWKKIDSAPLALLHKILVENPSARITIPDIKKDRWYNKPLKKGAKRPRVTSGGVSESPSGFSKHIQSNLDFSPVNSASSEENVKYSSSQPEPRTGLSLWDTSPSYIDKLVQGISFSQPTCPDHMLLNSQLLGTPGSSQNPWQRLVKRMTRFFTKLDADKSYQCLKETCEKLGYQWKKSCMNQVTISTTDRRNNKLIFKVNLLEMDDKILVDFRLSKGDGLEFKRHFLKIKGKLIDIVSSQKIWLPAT

[6] = biological target: Ephrin type-A receptor 4 (Homo sapiens) (UniProt P54764); test: Inhibition of EphA4 at 0.1 uM; values are per cent of control
[7] = biological target: RAC-alpha serine/threonine-protein kinase (Homo sapiens) (UniProt P31749); test: Inhibition of PKBalpha at 1 uM; values are per cent of control
[8] = biological target: T4, Aurora kinase A (Homo sapiens) (UniProt O14965); test: Inhibition of aurora-A at 0.1 uM; values are per cent of control
T4 sequence (whole entry): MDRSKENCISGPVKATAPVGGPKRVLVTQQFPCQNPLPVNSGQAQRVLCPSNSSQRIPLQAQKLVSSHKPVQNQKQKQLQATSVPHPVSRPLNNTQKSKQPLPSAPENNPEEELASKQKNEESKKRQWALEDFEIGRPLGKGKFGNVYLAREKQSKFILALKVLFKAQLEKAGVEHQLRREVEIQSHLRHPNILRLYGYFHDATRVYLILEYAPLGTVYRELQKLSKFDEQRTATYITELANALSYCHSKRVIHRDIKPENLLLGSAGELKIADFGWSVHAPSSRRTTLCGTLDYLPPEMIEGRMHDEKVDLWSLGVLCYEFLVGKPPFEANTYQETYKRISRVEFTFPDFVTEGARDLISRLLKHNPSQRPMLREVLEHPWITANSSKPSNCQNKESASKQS

[9] = biological target: MAP kinase-activated protein kinase 2 (Homo sapiens) (UniProt P49137); test: Inhibition of MAPKAP-K2 at 0.1 uM; values are per cent of control
[10] = biological target: Cyclin-dependent kinase 7/ cyclin H (Homo sapiens) (UniProt P51946+P50613); test: Inhibition of CDK7/cyclin H/MAT1 at 1 uM; values are per cent of control

Sequence of Macrophage colony-stimulating factor 1 receptor (Homo sapiens) (P07333 whole entry): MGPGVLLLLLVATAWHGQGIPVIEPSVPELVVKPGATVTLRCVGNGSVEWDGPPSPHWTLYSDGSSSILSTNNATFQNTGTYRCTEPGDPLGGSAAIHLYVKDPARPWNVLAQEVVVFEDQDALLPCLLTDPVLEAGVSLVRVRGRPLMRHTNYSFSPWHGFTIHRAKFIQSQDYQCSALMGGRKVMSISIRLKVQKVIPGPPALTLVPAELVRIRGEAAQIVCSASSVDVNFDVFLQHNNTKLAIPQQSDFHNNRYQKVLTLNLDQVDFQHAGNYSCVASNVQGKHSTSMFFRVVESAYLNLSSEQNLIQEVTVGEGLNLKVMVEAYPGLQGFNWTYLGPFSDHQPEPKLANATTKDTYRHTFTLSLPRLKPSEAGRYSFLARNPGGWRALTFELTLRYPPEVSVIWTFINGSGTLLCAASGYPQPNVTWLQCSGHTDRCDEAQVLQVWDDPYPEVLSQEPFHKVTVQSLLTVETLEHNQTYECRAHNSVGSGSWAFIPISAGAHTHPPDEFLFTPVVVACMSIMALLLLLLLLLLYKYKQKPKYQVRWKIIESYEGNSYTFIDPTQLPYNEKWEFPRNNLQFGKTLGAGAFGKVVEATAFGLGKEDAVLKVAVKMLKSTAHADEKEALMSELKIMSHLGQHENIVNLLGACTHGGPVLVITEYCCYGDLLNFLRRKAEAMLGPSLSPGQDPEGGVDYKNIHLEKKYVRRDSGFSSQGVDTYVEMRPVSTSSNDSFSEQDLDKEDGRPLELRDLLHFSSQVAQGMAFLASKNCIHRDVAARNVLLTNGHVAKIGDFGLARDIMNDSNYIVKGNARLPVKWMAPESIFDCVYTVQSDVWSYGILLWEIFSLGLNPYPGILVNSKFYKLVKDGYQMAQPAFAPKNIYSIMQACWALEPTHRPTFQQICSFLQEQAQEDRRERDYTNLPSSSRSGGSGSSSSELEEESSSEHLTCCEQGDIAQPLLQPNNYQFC
Sequence of MAP kinase-activated protein kinase 2 (Homo sapiens) (P49137 whole entry, looked up): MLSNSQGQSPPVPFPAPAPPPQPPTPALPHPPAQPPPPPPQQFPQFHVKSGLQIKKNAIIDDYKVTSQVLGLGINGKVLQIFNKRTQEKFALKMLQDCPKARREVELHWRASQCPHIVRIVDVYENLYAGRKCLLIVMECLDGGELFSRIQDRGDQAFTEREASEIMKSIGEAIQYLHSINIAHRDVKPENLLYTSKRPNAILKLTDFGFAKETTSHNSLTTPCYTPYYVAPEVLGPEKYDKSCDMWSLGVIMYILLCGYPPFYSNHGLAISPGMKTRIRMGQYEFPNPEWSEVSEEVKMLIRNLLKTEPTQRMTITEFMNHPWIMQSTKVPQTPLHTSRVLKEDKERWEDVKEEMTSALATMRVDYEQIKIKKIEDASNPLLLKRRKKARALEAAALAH
Sequence of Ephrin type-A receptor 4 (Homo sapiens) (P54764 whole entry): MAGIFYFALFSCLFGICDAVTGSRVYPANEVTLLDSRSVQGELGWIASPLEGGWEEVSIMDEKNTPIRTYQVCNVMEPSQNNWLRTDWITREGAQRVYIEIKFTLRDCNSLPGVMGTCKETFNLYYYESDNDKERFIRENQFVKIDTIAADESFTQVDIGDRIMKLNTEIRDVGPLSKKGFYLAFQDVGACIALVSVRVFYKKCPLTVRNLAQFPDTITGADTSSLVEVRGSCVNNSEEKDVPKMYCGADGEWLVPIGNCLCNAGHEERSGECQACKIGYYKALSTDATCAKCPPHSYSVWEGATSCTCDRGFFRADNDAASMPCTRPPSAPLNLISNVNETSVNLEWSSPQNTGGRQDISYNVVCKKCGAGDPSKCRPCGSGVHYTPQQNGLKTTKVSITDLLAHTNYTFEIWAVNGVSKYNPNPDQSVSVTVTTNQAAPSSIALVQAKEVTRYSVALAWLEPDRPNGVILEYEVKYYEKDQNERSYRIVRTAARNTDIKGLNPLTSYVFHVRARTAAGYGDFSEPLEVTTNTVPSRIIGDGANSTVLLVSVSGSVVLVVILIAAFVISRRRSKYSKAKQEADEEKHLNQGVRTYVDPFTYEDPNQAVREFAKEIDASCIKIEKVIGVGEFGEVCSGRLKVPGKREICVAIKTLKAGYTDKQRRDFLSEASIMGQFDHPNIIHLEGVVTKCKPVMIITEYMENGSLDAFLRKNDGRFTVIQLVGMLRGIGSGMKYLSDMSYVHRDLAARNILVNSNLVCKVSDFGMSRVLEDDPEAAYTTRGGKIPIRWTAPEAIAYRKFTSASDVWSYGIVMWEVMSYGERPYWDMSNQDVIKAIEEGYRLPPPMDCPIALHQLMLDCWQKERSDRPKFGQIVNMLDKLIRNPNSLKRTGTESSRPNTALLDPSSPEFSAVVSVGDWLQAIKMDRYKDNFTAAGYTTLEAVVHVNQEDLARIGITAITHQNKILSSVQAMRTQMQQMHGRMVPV
Sequence of RAC-alpha serine/threonine-protein kinase (Homo sapiens) (P31749 whole entry): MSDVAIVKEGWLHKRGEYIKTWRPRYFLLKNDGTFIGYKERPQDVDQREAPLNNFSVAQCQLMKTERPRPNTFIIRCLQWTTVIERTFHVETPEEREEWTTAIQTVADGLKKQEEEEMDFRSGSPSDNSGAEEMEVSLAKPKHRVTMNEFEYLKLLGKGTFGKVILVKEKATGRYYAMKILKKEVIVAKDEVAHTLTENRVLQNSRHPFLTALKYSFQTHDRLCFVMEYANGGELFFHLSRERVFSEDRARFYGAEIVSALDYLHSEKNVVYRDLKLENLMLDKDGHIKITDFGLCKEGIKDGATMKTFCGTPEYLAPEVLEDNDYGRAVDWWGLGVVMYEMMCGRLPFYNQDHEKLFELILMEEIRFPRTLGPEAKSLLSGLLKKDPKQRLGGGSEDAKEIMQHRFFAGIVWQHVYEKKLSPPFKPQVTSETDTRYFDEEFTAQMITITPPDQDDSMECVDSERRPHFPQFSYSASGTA

Row | residual activity [1] [%] | residual activity [2] [%] | residual activity [3] [%] | residual activity [4] [%] | residual activity [5] [%] | residual activity [6] [%] | residual activity [7] [%] | residual activity [8] [%] | residual activity [9] [%] | residual activity [10] [%] | Structure (SMILES)
1 | 2 | 32 | 57 | 41 | 18 | 98 | 69 | 5 | 98 | 10 | Cc1ccc2cc(-c3n[nH]c4ccc(NC5CCNC5)cc34)[nH]c2c1 (stereo not given)
2 | 7 | 97 | 60 | 14 | 90 | 99 | 86 | 34 | 104 | 28 | Cc1ccc2cc(-c3n[nH]c4ccc(NC5CCN(Cc6ccccc6)CC5)cc34)[nH]c2c1
